Consider twelve compounds from ChEMBL document CHEMBL1201862, “PubChem BioAssay data set” (2004).

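Interpolation was linear, between the two tested concentrations surrounding the appropriate level; five concentrations were tested over 48 hours in 96-well plates. GI50 = concentration required for 50% inhibition of growth.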 Activity calls are given as the source filed them. Rule as the data show it: active = GI50 up to about 1.1 µM and inactive = higher.

Some test systems named below: A549; ACHN; EKVX; HOP-92; HT-29; K562; M14; MCF7; MDA-MB-231; MOLT-4; OVCAR-3; SF-268; SK-MEL-5; SNB-19; SR; CCRF-CEM; DU-145; T47D; BT-549.
What all share (assay): NCI tumour cell line growth inhibition, 48 h

Turning to `CCOC(=O)N1CCC2(CC1)C[C@](C)(C(C)=O)C(C)O2` (stereo partly drawn), the GI50 in the test on A549, with ACHN, with EKVX, in the test on HOP-92, with HT-29 and with K562 was > 100 µM (inactive) throughout. The GI50 with M14, with MCF7, with MDA-MB-231, in the test on MOLT-4, in the test with OVCAR-3 and in the test on SF-268 was > 100 µM (inactive) throughout. The GI50 in the test on SK-MEL-5, in the test with SNB-19 and in the test with SR was > 100 µM (inactive) in each case.

For the compound `O=[N+]([O-])c1ccc(Cl)cc1C1ON=C(c2ccccc2)N1C12CC3CC(CC(C3)C1)C2` (stereo not drawn), the GI50 in the test on A549, in the test on ACHN, with CCRF-CEM, in the test with DU-145, with EKVX and with HOP-92 was > 100 µM (inactive) throughout. Moreover, the GI50 in the test with HT-29, with K562, with M14, in the test on MCF7, in the test on MDA-MB-231 and in the test with MOLT-4 was > 100 µM (inactive) in each case. Also, the GI50 in the test on OVCAR-3 was 97.7 µM (inactive); with SF-268, > 100 µM (inactive); in the test with SK-MEL-5 it was > 100 µM (inactive); with SNB-19, > 100 µM (inactive); in the test on SR it was > 100 µM (inactive); in the test on T47D it was > 100 µM (inactive).

Take `COc1ccc(C2=C(Cl)c3cc(OC)c(OC)cc3C2Cl)cc1OC` (stereo not drawn): the GI50 in the test on A549 is 19.5 µM (inactive); in the test on ACHN it was 16.6 µM (inactive); in the test on CCRF-CEM it was 4.32 µM (inactive); in the test on EKVX, 22.2 µM (inactive); in the test with HOP-92, 24.8 µM (inactive); in the test on HT-29, 16.3 µM (inactive). Besides, the GI50 in the test on K562 is 10.8 µM (inactive); in the test with M14 it was 17.7 µM (inactive); in the test with MOLT-4 it was 3.82 µM (inactive); with OVCAR-3, 15.1 µM (inactive); in the test with SK-MEL-5, 14.6 µM (inactive); in the test on SNB-19 it was 15.9 µM (inactive).

Take `O=S(=O)(c1ccc(/N=C2\NC(c3ccc(O)cc3)(c3ccccc3O)c3ccccc32)cc1)c1ccc(/N=C2/NC(c3ccc(O)cc3)(c3ccccc3O)c3ccccc32)cc1` (stereo not drawn): the GI50 in the test with A549 is 6.15 µM (inactive); in the test with ACHN, 20.2 µM (inactive); in the test on CCRF-CEM, 3.37 µM (inactive); in the test with DU-145 it was 4.65 µM (inactive); in the test with EKVX, 5.96 µM (inactive); with HOP-92 it was 3.91 µM (inactive). Further, the GI50 with HT-29 was 3.09 µM (inactive); in the test with K562 it was 3.52 µM (inactive); in the test with M14, 3.87 µM (inactive); with MCF7, 3.95 µM (inactive); in the test on MOLT-4, 4.04 µM (inactive); in the test on OVCAR-3, 4.74 µM (inactive). In addition, the GI50 was 3.38 µM (inactive) with SF-268; 4.46 µM (inactive) with SK-MEL-5; 5.08 µM (inactive) with SNB-19; 5.38 µM (inactive) in the test with SR; 2.25 µM (inactive) in the test on T47D.

Turning to `Nc1nc(NCc2ccccc2)cc(NCc2ccccc2)n1`, the GI50 in the test on A549 is 9.48 µM (inactive); with ACHN, 7.26 µM (inactive); with BT-549 it was 7.55 µM (inactive); in the test with CCRF-CEM, 4.24 µM (inactive); with EKVX, 9.93 µM (inactive); in the test with HOP-92, 5.38 µM (inactive). Also, the GI50 in the test on HT-29 was 2.88 µM (inactive); in the test with K562, 5.75 µM (inactive); with M14, 10.5 µM (inactive); with MCF7, 2.59 µM (inactive); in the test on MDA-MB-231 it was 3.49 µM (inactive); in the test with MOLT-4, 7.18 µM (inactive). Moreover, the GI50 in the test with OVCAR-3 was 3.69 µM (inactive); in the test with SF-268 it was 4 µM (inactive); with SK-MEL-5, 3.71 µM (inactive); with SNB-19, 8.39 µM (inactive); with SR, 2.72 µM (inactive); in the test with T47D, 4.48 µM (inactive).

Regarding `CSC(SC)=C1C(=O)N(c2ccccc2)N=C1C`, the GI50 in the test with A549 was 30.8 µM (inactive); in the test on ACHN it was 27.4 µM (inactive); in the test with BT-549 it was 21.6 µM (inactive); in the test on CCRF-CEM, 18.5 µM (inactive); in the test with EKVX, 24 µM (inactive); with HOP-92, 2.75 µM (inactive). The GI50 is 35.8 µM (inactive) with HT-29; 27.1 µM (inactive) in the test with K562; 20.6 µM (inactive) in the test on M14; 17.3 µM (inactive) with MCF7; 33.8 µM (inactive) in the test with MDA-MB-231; 21.7 µM (inactive) in the test on MOLT-4. Further, the GI50 in the test with SF-268 is 61.1 µM (inactive); in the test on SK-MEL-5 it was 10.3 µM (inactive); with SNB-19, 30.9 µM (inactive).

Consider `O=c1[nH]c2ccc(CC(=S)N3CCOCC3)cc2o1`, for which the GI50 in the test on ACHN is > 100 µM (inactive); with BT-549, > 100 µM (inactive); in the test on CCRF-CEM it was 89.9 µM (inactive); with EKVX, > 100 µM (inactive); in the test on HT-29, > 100 µM (inactive); in the test with M14, > 100 µM (inactive). The GI50 with MCF7 was > 100 µM (inactive); with MDA-MB-231 it was > 100 µM (inactive); in the test on MOLT-4, > 100 µM (inactive); with OVCAR-3 it was > 100 µM (inactive); in the test with SF-268, > 100 µM (inactive); in the test on SR it was 56.6 µM (inactive).

As for `CC(NNC(=O)c1ccncc1)c1cccc(C(F)(F)F)c1` (stereo not drawn), the GI50 in the test on A549, in the test with ACHN, with CCRF-CEM, in the test on DU-145, with EKVX and with HOP-92 was > 100 µM (inactive) each time. The GI50 in the test with HT-29, in the test on K562, in the test on M14, with MCF7, with MDA-MB-231 and in the test with MOLT-4 was > 100 µM (inactive) throughout. Also, the GI50 in the test with OVCAR-3 was 0.265 µM (active); in the test on SF-268, > 100 µM (inactive); with SK-MEL-5, > 100 µM (inactive); in the test on SR, > 100 µM (inactive); in the test on T47D, > 100 µM (inactive).

Consider `COC(=O)C1CCC(=O)N1CN(C(C)=O)c1cccc(O)c1` (stereo not drawn), for which the GI50 with A549, with ACHN, in the test on DU-145, in the test on EKVX, with HOP-92 and with HT-29 was > 100 µM (inactive) throughout. Further, the GI50 with K562, in the test with M14, in the test with MCF7, in the test on MDA-MB-231, with MOLT-4 and in the test with OVCAR-3 was > 100 µM (inactive) throughout. For the same compound, the GI50 in the test with SF-268, in the test on SK-MEL-5, in the test with SNB-19 and in the test on T47D was > 100 µM (inactive) each time.

With `OC1c2ccccc2CCC1C(O)(C(F)(F)F)C(F)(F)F` (stereo not drawn), the GI50 in the test on A549 is > 100 µM (inactive); with ACHN, > 100 µM (inactive); in the test with CCRF-CEM it was > 100 µM (inactive); in the test with DU-145, > 100 µM (inactive); with EKVX it was > 100 µM (inactive); in the test on HOP-92, 35.1 µM (inactive). For the same compound, the GI50 was > 100 µM (inactive) with HT-29; > 100 µM (inactive) in the test on K562; > 100 µM (inactive) in the test on M14; 46.3 µM (inactive) in the test with MCF7; 11 µM (inactive) in the test on MDA-MB-231; > 100 µM (inactive) in the test on MOLT-4. The GI50 in the test with OVCAR-3 was 58.6 µM (inactive); with SF-268, > 100 µM (inactive); with SK-MEL-5, > 100 µM (inactive); with SNB-19 it was > 100 µM (inactive); in the test on SR it was > 100 µM (inactive); in the test on T47D, > 100 µM (inactive).

Take `COC(=O)C(=O)C(C(=O)OC)C(=O)C(=O)Nc1ccccc1C(N)=O` (stereo not drawn): the GI50 in the test with A549, in the test with ACHN, in the test with BT-549, in the test on CCRF-CEM, in the test with EKVX and in the test on HOP-92 was > 100 µM (inactive) each time. The GI50 in the test on HT-29, in the test with M14, in the test with MCF7, with MDA-MB-231, in the test with MOLT-4 and in the test with OVCAR-3 was > 100 µM (inactive) each time. The GI50 in the test on SF-268, in the test on SK-MEL-5, in the test with SNB-19, in the test on SR and with T47D was > 100 µM (inactive) each time.

`O=C(Nc1ccccn1)c1cc2c(cc1Cl)Sc1nccn1S2(=O)=O`: the GI50 is 34.8 µM (inactive) in the test with A549; 32.1 µM (inactive) in the test on ACHN; 71.3 µM (inactive) in the test with BT-549; 22.5 µM (inactive) with CCRF-CEM; 38.2 µM (inactive) with EKVX; 51.9 µM (inactive) with HOP-92. In addition, the GI50 with HT-29 is 31.1 µM (inactive); in the test on K562, 32.3 µM (inactive); with M14, 48.9 µM (inactive); in the test on MCF7, 41.8 µM (inactive); with MDA-MB-231, 21.1 µM (inactive); in the test on MOLT-4, 31.3 µM (inactive). In addition, the GI50 in the test on OVCAR-3 is 26.7 µM (inactive); in the test with SF-268, 37.8 µM (inactive); with SK-MEL-5, 25.6 µM (inactive); with SNB-19, 56.1 µM (inactive); in the test with SR it was 29.4 µM (inactive); in the test on T47D it was 20.7 µM (inactive).
